The results in this text go back to patent publication US12157741B2, “Macrocyclic inhibitors of DYRK1A” (DANA-FARBER CANCER INSTITUTE, INC., priority 2018, dated 2024).

Read-outs that look alike come from different tables or passages of the source.

Experiment [1] has as its target T1, various enzymes (Homo sapiens, UniProt O14733).
T1 sequence (O14733 1-419): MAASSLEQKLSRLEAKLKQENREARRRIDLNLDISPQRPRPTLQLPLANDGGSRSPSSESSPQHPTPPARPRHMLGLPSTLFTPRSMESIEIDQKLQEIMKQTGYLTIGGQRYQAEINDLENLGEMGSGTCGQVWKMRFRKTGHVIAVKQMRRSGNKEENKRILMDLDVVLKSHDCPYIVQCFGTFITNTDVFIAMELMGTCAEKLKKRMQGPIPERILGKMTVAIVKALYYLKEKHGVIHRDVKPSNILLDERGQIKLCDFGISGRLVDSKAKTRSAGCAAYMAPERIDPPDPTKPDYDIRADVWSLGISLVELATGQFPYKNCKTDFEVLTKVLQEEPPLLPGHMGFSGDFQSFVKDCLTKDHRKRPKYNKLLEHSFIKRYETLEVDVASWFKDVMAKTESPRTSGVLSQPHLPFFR
The settings on record: MKK7; 1 uM.
Procedure: (§1) Ambit profiling from Eurofins (formerly Discoverx) was conducted in accordance with the manufacturer's instructions.

The target of experiment [2] is various enzymes (Homo sapiens, UniProt O15075). As to conditions: DCAMKL1; 1 uM.
Chain of various enzymes (Homo sapiens, UniProt O15075) (O15075 whole entry): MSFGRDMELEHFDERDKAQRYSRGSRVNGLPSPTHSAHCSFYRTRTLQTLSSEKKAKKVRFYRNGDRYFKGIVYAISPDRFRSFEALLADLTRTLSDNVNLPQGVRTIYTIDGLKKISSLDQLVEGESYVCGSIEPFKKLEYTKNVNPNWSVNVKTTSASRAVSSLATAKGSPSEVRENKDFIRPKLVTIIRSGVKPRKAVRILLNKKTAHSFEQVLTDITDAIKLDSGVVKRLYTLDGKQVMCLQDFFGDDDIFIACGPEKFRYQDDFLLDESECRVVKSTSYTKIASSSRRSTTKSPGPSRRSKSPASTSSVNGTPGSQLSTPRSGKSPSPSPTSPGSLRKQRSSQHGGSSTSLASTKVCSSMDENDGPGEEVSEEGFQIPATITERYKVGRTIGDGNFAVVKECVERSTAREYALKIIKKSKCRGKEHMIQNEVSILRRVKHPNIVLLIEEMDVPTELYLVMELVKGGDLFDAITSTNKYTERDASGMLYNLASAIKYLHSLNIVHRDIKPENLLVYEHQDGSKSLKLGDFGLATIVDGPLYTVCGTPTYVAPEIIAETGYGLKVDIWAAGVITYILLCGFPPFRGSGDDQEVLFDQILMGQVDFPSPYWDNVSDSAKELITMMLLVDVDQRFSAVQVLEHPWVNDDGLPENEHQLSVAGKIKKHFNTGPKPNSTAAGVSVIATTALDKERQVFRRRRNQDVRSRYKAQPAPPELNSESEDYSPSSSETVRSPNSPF
Procedure: as §1
In experiment [3] the target is various enzymes (Homo sapiens, UniProt P00533, DEL752-759). As to conditions: EGFR(S752-I759del); 1 uM.
Procedure: as §1
In experiment [4] the target is various enzymes (Homo sapiens, UniProt P00533, DELINS747-751S). As to conditions: EGFR(L747-T751del, Sins); 1 uM.
Procedure: as §1
The target of experiment [5] is various enzymes (Homo sapiens, UniProt P00533, G719C).
Procedure: as §1
Experiment [6] addresses various enzymes (Homo sapiens, UniProt P00533, G719S).
Procedure: as §1
Experiment [7] has as its target various enzymes (Homo sapiens, UniProt P00533, T790M).
Procedure: as §1
For experiment [8], the target named is various enzymes (Homo sapiens, UniProt P29597). The settings on record: 1 uM.
Chain of various enzymes (Homo sapiens, UniProt P29597) (P29597 whole entry): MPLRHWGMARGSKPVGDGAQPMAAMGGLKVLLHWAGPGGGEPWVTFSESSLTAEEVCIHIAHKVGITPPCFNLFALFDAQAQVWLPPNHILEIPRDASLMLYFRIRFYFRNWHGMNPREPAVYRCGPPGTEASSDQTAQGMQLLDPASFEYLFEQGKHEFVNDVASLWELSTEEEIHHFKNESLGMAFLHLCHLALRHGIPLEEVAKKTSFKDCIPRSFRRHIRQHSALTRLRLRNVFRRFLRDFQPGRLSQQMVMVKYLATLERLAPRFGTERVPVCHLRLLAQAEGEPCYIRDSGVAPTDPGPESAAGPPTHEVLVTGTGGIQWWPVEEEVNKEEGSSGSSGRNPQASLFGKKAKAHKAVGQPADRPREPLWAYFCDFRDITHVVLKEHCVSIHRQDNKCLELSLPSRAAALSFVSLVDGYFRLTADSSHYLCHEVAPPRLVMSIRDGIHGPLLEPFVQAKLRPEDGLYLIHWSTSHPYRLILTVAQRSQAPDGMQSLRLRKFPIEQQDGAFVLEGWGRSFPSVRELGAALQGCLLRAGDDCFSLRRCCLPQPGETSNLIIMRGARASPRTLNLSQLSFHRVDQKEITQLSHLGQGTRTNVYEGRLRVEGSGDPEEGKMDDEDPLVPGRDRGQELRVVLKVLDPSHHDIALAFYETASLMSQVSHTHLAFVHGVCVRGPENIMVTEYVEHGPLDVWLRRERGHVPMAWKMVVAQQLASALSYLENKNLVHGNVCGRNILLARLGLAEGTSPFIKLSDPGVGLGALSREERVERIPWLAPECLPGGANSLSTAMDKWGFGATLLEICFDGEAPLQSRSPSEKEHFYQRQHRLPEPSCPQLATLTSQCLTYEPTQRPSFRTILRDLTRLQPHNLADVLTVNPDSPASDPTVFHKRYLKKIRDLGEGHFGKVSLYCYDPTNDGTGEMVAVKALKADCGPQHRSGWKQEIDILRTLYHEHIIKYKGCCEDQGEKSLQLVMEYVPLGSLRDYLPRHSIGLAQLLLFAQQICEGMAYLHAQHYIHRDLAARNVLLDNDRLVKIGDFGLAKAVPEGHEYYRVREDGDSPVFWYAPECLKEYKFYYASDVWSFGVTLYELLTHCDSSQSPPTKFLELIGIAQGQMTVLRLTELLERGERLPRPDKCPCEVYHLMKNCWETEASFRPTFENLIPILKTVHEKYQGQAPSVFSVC
Procedure: as §1
Experiment [9] has as its target various enzymes (Homo sapiens, UniProt P45984). As to conditions: JNK2; 1 uM.
Procedure: as §1
Experiment [10] concerns the target various enzymes (Homo sapiens, UniProt P53779). The settings on record: JNK3; 1 uM.
Procedure: as §1
The target in experiment [11] is T2, various enzymes (Homo sapiens, UniProt Q6PHR2).
T2 sequence (Q6PHR2 1-472): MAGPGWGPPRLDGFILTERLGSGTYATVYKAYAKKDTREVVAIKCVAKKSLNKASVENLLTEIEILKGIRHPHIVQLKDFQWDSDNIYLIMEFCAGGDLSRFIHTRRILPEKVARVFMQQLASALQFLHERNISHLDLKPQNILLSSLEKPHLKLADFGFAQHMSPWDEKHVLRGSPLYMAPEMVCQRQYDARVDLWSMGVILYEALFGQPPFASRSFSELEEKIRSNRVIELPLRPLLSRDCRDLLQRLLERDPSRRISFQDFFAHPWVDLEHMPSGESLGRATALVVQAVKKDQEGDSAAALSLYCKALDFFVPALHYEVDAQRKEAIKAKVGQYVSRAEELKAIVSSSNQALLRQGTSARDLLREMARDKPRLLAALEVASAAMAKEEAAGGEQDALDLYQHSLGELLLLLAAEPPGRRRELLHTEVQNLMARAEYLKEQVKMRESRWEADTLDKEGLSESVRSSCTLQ
The settings on record: ULK3; 1 uM.
Procedure: as §1

For experiment [12], the target named is T3, various enzymes (Homo sapiens, UniProt Q8IVH8).
T3 sequence (Q8IVH8 1-894): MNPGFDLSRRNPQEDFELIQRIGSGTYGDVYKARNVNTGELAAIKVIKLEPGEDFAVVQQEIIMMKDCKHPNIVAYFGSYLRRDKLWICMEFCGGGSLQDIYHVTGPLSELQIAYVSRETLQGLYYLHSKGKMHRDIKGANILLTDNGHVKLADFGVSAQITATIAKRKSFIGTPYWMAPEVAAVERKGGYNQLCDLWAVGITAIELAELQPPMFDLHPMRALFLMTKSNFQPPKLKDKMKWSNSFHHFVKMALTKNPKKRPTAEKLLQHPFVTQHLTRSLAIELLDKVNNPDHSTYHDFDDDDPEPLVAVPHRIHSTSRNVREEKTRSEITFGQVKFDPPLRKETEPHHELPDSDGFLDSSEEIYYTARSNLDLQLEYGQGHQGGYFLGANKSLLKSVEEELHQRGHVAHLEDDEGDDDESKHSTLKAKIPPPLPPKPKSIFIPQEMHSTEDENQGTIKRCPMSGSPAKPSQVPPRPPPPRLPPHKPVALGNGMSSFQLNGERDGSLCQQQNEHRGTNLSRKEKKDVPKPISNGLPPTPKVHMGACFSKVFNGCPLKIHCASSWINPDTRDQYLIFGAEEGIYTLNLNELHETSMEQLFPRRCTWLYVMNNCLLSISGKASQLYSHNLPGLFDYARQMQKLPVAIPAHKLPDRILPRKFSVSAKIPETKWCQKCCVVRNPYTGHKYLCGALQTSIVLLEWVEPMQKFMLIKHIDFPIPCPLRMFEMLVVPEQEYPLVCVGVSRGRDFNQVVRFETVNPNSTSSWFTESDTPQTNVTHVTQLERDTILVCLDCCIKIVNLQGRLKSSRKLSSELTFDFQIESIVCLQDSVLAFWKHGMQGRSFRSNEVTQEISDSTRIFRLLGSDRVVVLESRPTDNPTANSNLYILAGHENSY
The settings on record: MAP4K3; 1 uM.
Procedure: as §1

The target in experiment [13] is various enzymes (Homo sapiens, UniProt Q9BWU1). As to conditions: CDK11; 1 uM.
Chain of various enzymes (Homo sapiens, UniProt Q9BWU1) (Q9BWU1 whole entry): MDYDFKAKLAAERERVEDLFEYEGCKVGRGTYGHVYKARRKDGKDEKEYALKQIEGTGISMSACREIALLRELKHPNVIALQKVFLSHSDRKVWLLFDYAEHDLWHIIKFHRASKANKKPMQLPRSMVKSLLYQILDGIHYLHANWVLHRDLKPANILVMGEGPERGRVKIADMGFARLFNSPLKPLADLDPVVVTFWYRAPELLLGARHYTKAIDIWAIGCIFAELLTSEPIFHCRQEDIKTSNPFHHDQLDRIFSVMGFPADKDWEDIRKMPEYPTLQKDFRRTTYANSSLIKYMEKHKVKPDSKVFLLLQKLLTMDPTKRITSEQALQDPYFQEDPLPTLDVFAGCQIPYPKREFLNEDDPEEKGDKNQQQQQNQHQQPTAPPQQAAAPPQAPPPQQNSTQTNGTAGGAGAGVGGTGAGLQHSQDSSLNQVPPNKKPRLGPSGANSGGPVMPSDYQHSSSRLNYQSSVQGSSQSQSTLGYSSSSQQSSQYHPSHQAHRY
Procedure: as §1
The target of experiment [14] is various enzymes (Homo sapiens, UniProt Q9H4A3). As to conditions: WNK1; 1 uM.
Procedure: as §1
The target of experiment [15] is various enzymes (Homo sapiens, UniProt Q9NYY3). As to conditions: PLK2; 1 uM.
Chain of various enzymes (Homo sapiens, UniProt Q9NYY3) (Q9NYY3 whole entry): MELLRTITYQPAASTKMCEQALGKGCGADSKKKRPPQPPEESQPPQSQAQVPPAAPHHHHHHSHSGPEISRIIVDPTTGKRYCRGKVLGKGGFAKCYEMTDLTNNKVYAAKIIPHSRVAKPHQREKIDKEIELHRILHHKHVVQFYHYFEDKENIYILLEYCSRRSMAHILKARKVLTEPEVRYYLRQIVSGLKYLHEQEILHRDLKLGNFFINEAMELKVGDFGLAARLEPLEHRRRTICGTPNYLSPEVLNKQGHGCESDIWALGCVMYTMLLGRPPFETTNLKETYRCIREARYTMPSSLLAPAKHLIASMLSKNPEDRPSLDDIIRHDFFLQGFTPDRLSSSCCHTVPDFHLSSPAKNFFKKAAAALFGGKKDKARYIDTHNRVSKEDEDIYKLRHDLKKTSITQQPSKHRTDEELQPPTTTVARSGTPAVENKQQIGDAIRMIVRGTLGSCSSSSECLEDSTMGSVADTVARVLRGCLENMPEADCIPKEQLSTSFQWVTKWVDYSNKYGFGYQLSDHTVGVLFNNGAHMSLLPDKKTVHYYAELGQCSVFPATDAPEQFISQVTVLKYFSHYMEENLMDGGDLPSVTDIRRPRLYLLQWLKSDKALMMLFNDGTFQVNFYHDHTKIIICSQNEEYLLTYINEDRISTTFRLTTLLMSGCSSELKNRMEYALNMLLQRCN
Procedure: as §1
Experiment [16] addresses various enzymes (Homo sapiens, UniProt Q9Y2K2). The settings on record: QSK; 1 uM.
Procedure: as §1
Experiment [17] deals with various enzymes (Homo sapiens, UniProt Q9Y6E0). The settings on record: MST3; 1 uM.
Chain of various enzymes (Homo sapiens, UniProt Q9Y6E0) (Q9Y6E0 whole entry): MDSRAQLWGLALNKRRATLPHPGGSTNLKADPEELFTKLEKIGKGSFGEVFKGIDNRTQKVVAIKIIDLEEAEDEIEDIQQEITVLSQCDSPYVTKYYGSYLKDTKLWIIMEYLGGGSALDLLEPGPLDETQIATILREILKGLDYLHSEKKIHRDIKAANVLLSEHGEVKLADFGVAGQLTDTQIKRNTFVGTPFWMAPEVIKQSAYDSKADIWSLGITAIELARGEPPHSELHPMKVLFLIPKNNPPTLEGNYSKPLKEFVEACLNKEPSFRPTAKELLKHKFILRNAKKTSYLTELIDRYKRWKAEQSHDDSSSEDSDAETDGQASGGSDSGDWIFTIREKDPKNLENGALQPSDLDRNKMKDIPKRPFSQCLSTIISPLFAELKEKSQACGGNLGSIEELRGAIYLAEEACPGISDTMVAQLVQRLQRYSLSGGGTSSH
Procedure: as §1

Chain of various enzymes (Homo sapiens, UniProt P53779) (P53779 whole entry): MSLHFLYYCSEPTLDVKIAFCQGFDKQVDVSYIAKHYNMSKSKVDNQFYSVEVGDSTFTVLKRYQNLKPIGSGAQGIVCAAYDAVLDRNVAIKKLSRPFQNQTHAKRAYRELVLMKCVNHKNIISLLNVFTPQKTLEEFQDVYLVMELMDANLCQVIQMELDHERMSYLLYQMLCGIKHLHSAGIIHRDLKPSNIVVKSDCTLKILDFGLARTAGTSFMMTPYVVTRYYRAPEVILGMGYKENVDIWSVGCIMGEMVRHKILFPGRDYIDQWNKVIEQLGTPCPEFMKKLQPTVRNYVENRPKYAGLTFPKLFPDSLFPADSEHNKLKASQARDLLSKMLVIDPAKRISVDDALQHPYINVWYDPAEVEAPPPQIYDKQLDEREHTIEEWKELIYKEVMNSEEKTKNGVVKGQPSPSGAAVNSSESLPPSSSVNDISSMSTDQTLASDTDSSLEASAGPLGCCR
Chain of various enzymes (Homo sapiens, UniProt P45984) (P45984 whole entry): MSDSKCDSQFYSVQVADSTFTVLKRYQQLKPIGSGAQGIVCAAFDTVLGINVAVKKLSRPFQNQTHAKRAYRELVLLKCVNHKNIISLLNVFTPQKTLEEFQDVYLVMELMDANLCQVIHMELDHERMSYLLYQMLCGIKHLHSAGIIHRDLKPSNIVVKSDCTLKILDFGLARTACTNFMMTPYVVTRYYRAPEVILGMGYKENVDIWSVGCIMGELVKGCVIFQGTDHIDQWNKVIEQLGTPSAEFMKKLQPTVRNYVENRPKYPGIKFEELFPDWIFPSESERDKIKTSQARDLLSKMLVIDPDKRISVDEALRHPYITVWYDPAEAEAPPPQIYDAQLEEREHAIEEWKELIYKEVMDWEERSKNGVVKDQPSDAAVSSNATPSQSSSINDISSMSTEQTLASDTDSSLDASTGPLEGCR

As for `CN1Cc2nn(C)cc2-c2cnc3[nH]cc(c3c2)-c2cnn(c2)CCCC1=O` [Compound 41, (Z)-31,5-dimethyl-11H,21H,31H-5-aza-2(3,5)-pyrrolo[2,3-b]pyridina-1(4,1),3(4,3)-dipyrazolacyclononaphan-6-one], the Ambit profiling at various enzymes [1] is 28; at various enzymes [2] it was 65; at various enzymes [3], 100; on various enzymes [4] it was 100; at various enzymes [5] (EGFR(G719C), 1 uM), 100; on various enzymes [6] (EGFR(G719S), 1 uM), 100. Moreover, the Ambit profiling on various enzymes [7] (EGFR(T790M), 1 uM) turned out to be 41; on various enzymes [8] (TYK2(JH1domain-catalytic)), 2.3; on various enzymes [8] (TYK2(JH2domain-pseudokinase)), 100; on various enzymes [9], 1.1; at various enzymes [10] it was 0.75; at various enzymes [11], 5.6. Also, the Ambit profiling is 7.8 on various enzymes [12]; 84 on various enzymes [13]; 95 at various enzymes [14]; 90 at various enzymes [15]; 89 on various enzymes [16]; 39 at various enzymes [17].
Take `CN1Cc2nn(C)c(C#N)c2-c2cnc3[nH]cc(c3c2)-c2cn(nc2C(F)(F)F)CCCC1=O` [Compound 48, (Z)-31,5-dimethyl-6-oxo-13-(trifluoromethyl)-11H,21H,31H-5-aza-2(3,5)-pyrrolo[2,3-b]pyridina-1(4,1),3(4,3)-dipyrazolacyclononaphane-35-carbonitrile]: the Ambit profiling at various enzymes [1] is reported as 99; at various enzymes [2] it was 92; on various enzymes [3], 77; at various enzymes [4] it was 50; at various enzymes [5] it was 86; at various enzymes [6] it was 71. Moreover, the Ambit profiling at various enzymes [7] is listed as 80; on various enzymes [8] (TYK2(JH1domain-catalytic)) it was 84; at various enzymes [8] (TYK2(JH2domain-pseudokinase)) it was 100; at various enzymes [9], 8.1; on various enzymes [10] it was 14; at various enzymes [11], 97. In addition, the Ambit profiling is 77 at various enzymes [12]; 100 on various enzymes [13]; 100 at various enzymes [14]; 100 on various enzymes [15]; 100 at various enzymes [16]; 86 at various enzymes [17].
